Data on 11 compounds can be found in US4293713A, “Novel 1,1,3,5-substituted biuret compound and a pharmaceutical composition containing the same” (priority 1979, dated 1981).

A short description of data set [1]: Acute toxicity (oral, 7 days observation). To be noted: mouse, in vivo, read-out: Acute toxicity, 50% lethal dose, LD50 (values with Δ marks). It is filed as in vivo. The method, then: (§1) Next, several tests for determining the pharmacological properties, in that acute toxicity, anti-pyretic activity, analgesic activity and anti-inflammatory activity of the present 1,1,3,5-substituted biuret compounds of the formula (1) were conducted and the test results are shown in Table (2). In the tests, each compounds to be tested was used as a suspension in 0.25% carboxymethylcellulose solution. Methods for testing are explained as follows:
The ddy strain of male mice (body weight, 20-25 g) were used as test animals. The mice were fasted overnight and the compound to be tested was administered orally. […] The lethal dose (mg/kg, body weight) of the test compound was determined in connection with the death number of mice/the number of mice tested. In Table 2, the values indicated with Δ marks are 50% lethal dose, LD50 (mg/kg, body weight).

The test system of data set [2] is Wistar strain of male rats. Kind of data set: Anti-pyretic activity (dry-yeast induced fever). It is filed as in vivo, rat (Wistar strain. To be noted: oral, up to 4 hours after administration, dose not given. The method, then:
as §1
According to the method reported by Tanabe [Folia Pharmacologia Japonica, Vol. 73, pp. 803 (1977)], the Wistar strain of male rats (150-180 g body weight) were used as test animals. The rats were fasted overnight, and 1 ml/100 g (body weight) of 10% dry-yeast suspension were subcutaneously injected on the back of the rats. Five hours after the injection, the test compound was administered orally, then the body temperature of the rat was measured at time sequences. Anti-pyretic activity of the test compound was determined as the FI (febril index) by integrating pyrogenetic curve up to 4 hours after the administration of the test compound with time, and indicated as inhibitory ratio (%) shown by the following formula, [formula]

The subject of data set [3] is ddy strain of male mice. Kind of data set: Analgesic activity, acetic acid-induced stretching method. It counts as in vivo, mouse (ddy strain. The following applies: Mus musculus, po; for ED50: read-out: Analgesic activity, acetic acid-induced stretching method, 50% effective dose, ED50 (values with Δ marks). The method, then:
as §1
According to the method reported by Koster et al., [Fed. Proc., Vol. 18, pp. 412 (1959)], the ddy strain of male mice (body weight, 20-25 g) were used as test animals. The mice were fasted overnight, 100 mg/kg body weight of the test compound was administered orally, then 1 hour after the administration, 0.2 ml of 0.7% acetic acid solution was injected intraperitoneally. The acetic acid-induced stretching symptom of mouse was observed. Analgesic activity of the test compound was calculated as the inhibitory ratio (%). In Table 2, the values in Parentheses show the data obtained from the test by using the dosage other than 100 mg/kg body weight. Further, the values indicated with Δ marks show 50% effective dose, ED50 (mg/kg body weight).

For data set [4], the system named is ddy strain of male mice. In words: Analgesic activity, Haffner method. The following applies: with threshold morphine hydrochloride s.c.; for Analgesic activity, Haffner method, 50% effective dose, ED50 (values with Δ marks): oral, range in parentheses. It is filed as in vivo, mouse (ddy strain. The method, then: as §1
According to the modified method reported by Fujimura et al., [Bulletin of the Institute for Chemical Research, Kyoto University, No. 25, pp. 36 (1951)], the ddy strain of male mice (body weight, 20-25 g) were used as test animals. The mice were fasted overnight, 100 mg/kg body weight of the test compound was administered orally, then 45 minutes after the administration, the threshold amount (1.5-2.5 mg/kg body weight) of morphine hydrochloride was injected subcutaneously. Then 1-hour pain reaction of the mouse caused by a clamp was observed. Analgesic activity of the test compound was calculated as the inhibitory ratio (%). In Table 2, the values in parentheses show the data obtained from the test by using the dosage other than 100 mg/kg body weight. Further, the values indicated with Δ marks show 50% effective dose, ED50 (mg/kg body weight).

The test system of data set [5] is Wistar strain of male rats. Kind of data set: Anti-inflammatory activity, acute carrageenin-induced inflammatory test. The following applies: Rattus norvegicus. It counts as in vivo, rat (Wistar strain. The method, then:
as §1
According to the method of acute carrageenin-induced inflammatory test [Folia Pharmacologia Japonica, Vol. 56, pp. 575 (1960)], the Wistar strain of male rats (body weight, 150-180 g) were used as test animals. The rats were fasted overnight, 100 mg/kg body weight of the test compound was administered orally, then 1 hour after the administration, 0.1 ml of 1% carrageenin solution, as the inflammation inducing agent, was injected subcutaneously to the hindpaw of the rat and the volume of the hindpaw was measured at time sequences. Anti-inflammatory activity of the test compound was calculated as inflammation inhibitory ratio (%) at 3 hours after the injection of the inflammation inducing agent.

The mark [6] stands for this setting: po, 3 h, read-out: Anti-inflammatory activity, inflammation inhibitory ratio.
Where [7] appears, read: read-out: Analgesic activity, acetic acid-induced stretching method, inhibitory ratio.
Where [8] appears, read: 100 mg/kg oral, rats, 3 hours after carrageenin, read-out: Anti-inflammatory activity, inflammation inhibitory ratio.
The mark [9] stands for this setting: po, 2 h, read-out: Anti-inflammatory activity, inflammation inhibitory ratio (2 hours value).

Structures are written as SMILES. Read-outs that look alike come from different tables or passages of the source.

As a reminder, the LD50 is the dose at which mortality reaches 50%. Broadly, the ED50 is the midpoint of the dose-response relation. On to `CN(C)C(=O)N(C)C(=O)Nc1ccccc1` [Compound No. 1, 1,1,3-Trimethyl-5-phenylbiuret], for which the LD50 at 168 h in data set [1] (oral, mice, 7 days) amounted to 1710 mg/kg. In data set [2], the “Anti-pyretic activity, inhibitory ratio of febril index (FI)” value stood at 80%. Moreover, the median effective dose (ED50) in data set [3] is 75 mg/kg. Moreover, the “Analgesic activity, Haffner method, 50% effective dose, ED50 (values with Δ marks)” value in data set [4] is 68(52-88) mg/kg. In addition, the inhibition in vivo at 100 mg/kg in data set [5] (setting [6]) was determined as 59%.

`CN(C)C(=O)N(C)C(=O)Nc1ccc(F)cc1` [Compound No. 3, 1,1,3-Trimethyl-5-(4-fluorophenyl)biuret]: the LD50 at 168 h in data set [1] (oral, mice, 7 days) was 930 mg/kg. In addition, the “Anti-pyretic activity, inhibitory ratio of febril index (FI)” value in data set [2] is reported as 61%. Further, the inhibition in vivo at 100 mg/kg in data set [3] (setting [7]) turned out to be 87.5%; in data set [5] (setting [8]) it was 37%. Further, in data set [4] (100 mg/kg oral), the “Analgesic activity, Haffner method, inhibitory ratio” value turned out to be 62.5%.

For `CN(C)C(=O)N(C)C(=O)Nc1ccc(Cl)cc1` [Compound No. 7, 1,1,3-trimethyl-5-p-chlorophenylbiuret], in data set [1] (oral, mice, 7 days), the LD50 at 168 h was determined as 1200 mg/kg. For the same compound, the “Anti-pyretic activity, inhibitory ratio of febril index (FI)” value in data set [2] is listed as 84%. For the same compound, the ED50 in data set [3] was determined as 12 mg/kg. In addition, the “Analgesic activity, Haffner method, 50% effective dose, ED50 (values with Δ marks)” value in data set [4] is given as 20(11-35) mg/kg. The inhibition in vivo at 100 mg/kg in data set [5] (setting [6]) is 47%.

For the compound `CN(C)C(=O)N(C)C(=O)Nc1ccc(Br)cc1` [Compound No. 11, 1,1,3-Trimethyl-5-(4-bromophenyl)biuret], the 50% lethal dose (LD50) at 168 h in data set [1] (oral, mice, 7 days) is 1350 mg/kg. For the same compound, in data set [2], the “Anti-pyretic activity, inhibitory ratio of febril index (FI)” value worked out at 103%. Moreover, in data set [3], the ED50 amounted to 60 mg/kg. For the same compound, in data set [4], the “Analgesic activity, Haffner method, 50% effective dose, ED50 (values with Δ marks)” value was 74(49-113) mg/kg. Further, in data set [5] (setting [9]), the inhibition in vivo at 100 mg/kg was 48%.

For `COc1ccc(NC(=O)N(C)C(=O)N(C)C)cc1` [Compound No. 17, 1,1,3-Trimethyl-5-(4-methoxyphenyl)biuret], the LD50 at 168 h in data set [1] (oral, mice, 7 days) is 1800 mg/kg. Moreover, in data set [2], the “Anti-pyretic activity, inhibitory ratio of febril index (FI)” value stood at 75%. Besides, the ED50 in data set [3] stood at 39 mg/kg. The “Analgesic activity, Haffner method, 50% effective dose, ED50 (values with Δ marks)” value in data set [4] was 42 to 153 mg/kg. Further, the inhibition in vivo at 100 mg/kg in data set [5] (setting [6]) turned out to be 33%.

With `CN(C)C(=O)N(C)C(=O)Nc1cccc(Cl)c1` [compound 6, 1,1,3-Trimethyl-5-(3-chlorophenyl)biuret], in data set [1] (oral, mice, 7 days), the LD50 at 168 h was 1480 mg/kg. The “Anti-pyretic activity, inhibitory ratio of febril index (FI)” value in data set [2] is reported as 43%. For the same compound, the inhibition in vivo at 100 mg/kg was 62.5% in data set [3] (setting [7]) and 30% in data set [5] (setting [9]). For the same compound, in data set [4] (200 mg/kg oral), the “Analgesic activity, Haffner method, inhibitory ratio” value is on record as 75%.

Consider `CN(C)C(=O)N(C)C(=O)Nc1c(Cl)cccc1Cl` [compound 9, 1,1,3-Trimethyl-5-(2,6-dichlorophenyl)biuret], for which, in data set [1] (oral, mice, 7 days), the LD50 at 168 h stood at 1100 mg/kg. In data set [2], the “Anti-pyretic activity, inhibitory ratio of febril index (FI)” value is reported as 29%. The inhibition in vivo at 100 mg/kg in data set [3] (setting [7]) was found to be 50%; in data set [5] (setting [8]), 25%. Moreover, the “Analgesic activity, Haffner method, inhibitory ratio” value in data set [4] (100 mg/kg oral) is given as 50%.

Consider `Cc1ccccc1NC(=O)N(C)C(=O)N(C)C` [compound 20, 1,1,3-Trimethyl-5-(2-methylphenyl)biuret], for which the LD50 at 168 h in data set [1] (oral, mice, 7 days) turned out to be 1000 mg/kg. Also, the “Anti-pyretic activity, inhibitory ratio of febril index (FI)” value in data set [2] is given as 41%. The inhibition in vivo at 100 mg/kg in data set [3] (setting [7]) is 37.5%; in data set [5] (setting [6]), 29%. Also, the “Analgesic activity, Haffner method, inhibitory ratio” value in data set [4] (100 mg/kg oral) was found to be 50%.

Turning to `Cc1cccc(C)c1NC(=O)N(C)C(=O)N(C)C` [compound 24, 1,1,3-Trimethyl-5-(2,6-dimethylphenyl)biuret], the LD50 at 168 h in data set [1] (oral, mice, 7 days) was determined as 595 mg/kg. Further, the “Anti-pyretic activity, inhibitory ratio of febril index (FI)” value in data set [2] is 69%. Besides, the inhibition in vivo at 100 mg/kg in data set [3] (setting [7]) was found to be 75%. Moreover, in data set [4] (100 mg/kg oral), the “Analgesic activity, Haffner method, inhibitory ratio” value is 37.5%.

For `CN(C)C(=O)N(C)C(=O)NC1CCCCC1` [compound 29, 1,1,3-Trimethyl-5-cychlohexylbiuret], in data set [1] (po), the LD50 at 168 h came out at 1450 mg/kg. Besides, in data set [3] (setting [7]), the inhibition in vivo at 200 mg/kg stood at 87.5%. Moreover, the “Analgesic activity, Haffner method, inhibitory ratio” value in data set [4] (100 mg/kg oral) amounted to 25%. Moreover, the inhibition in vivo at 100 mg/kg in data set [5] (100 mg/kg oral, rats, 2 hours value, read-out: Anti-inflammatory activity, inflammation inhibitory ratio (2 hours value)) was 24%.

As for `CCN(C)C(=O)N(C)C(=O)Nc1ccccc1` [compound 33, 1-Ethyl-1,3-dimethyl-5-phenylbiuret], in data set [1] (oral, mice, 7 days), the 50% lethal dose (LD50) at 168 h amounted to 1290 mg/kg. In addition, in data set [2], the “Anti-pyretic activity, inhibitory ratio of febril index (FI)” value is listed as 49%. Moreover, in data set [3] (setting [7]), the inhibition in vivo at 80 mg/kg came out at 50%. In data set [5] (setting [8]), the inhibition in vivo at 100 mg/kg came to 34%.
